This note sets out measurements from article PMC7471840, “Autoantigens PLA2R and THSD7A in membranous nephropathy share a common epitope motif in the N-terminal domain” (Journal of Autoimmunity, 2020).

Usually Kd stands for the equilibrium constant for the complex coming apart.

The subject of data set [1] is affinity purified anti-P28mer (PLA2R autoantibodies). The data set can be described thus: BLI of affinity purified anti-P28mer. In kind it is binding, human. The note with it: immobilized peptide, antibodies eluted from P28mer beads, normalized to blank beads. The procedure:
(§1) 2 mg of MyOne™ carboxylic acid dynabeads per condition (Invitrogen, UK) were activated using 18.75 mg/ml EDC (N-3-dimethylaminopropyl- N′-ethylcarbodiimide hydrochloride, Sigma-Aldrich). 800 μg/ml of recombinant PLA2R fragment (NC3) and peptides (P28mer, T28mer or T28mer scrambled peptide) diluted in 15 mM MES buffer pH 6 were covalently immobilized overnight at 4 °C. The conditioned beads were then deactivated using 1 M ethanolamine (Bio-Rad) for 1 h. Pooled anti-THSD7A positive MN patient sera were diluted 1:50 in PBS-T and incubated (overnight at 4 °C with agitation) with 1 mg of either blank immobilized, T28mer immobilized or T28mer scrambled peptide immobilized magnetic beads. Pooled anti-PLA2R positive MN patient sera were similarly diluted and incubated with blank immobilized, PLA2R antigen immobilized or P28mer immobilized magnetic beads. Magnetic beads from all conditions were then precipitated, the supernatants removed, and washed three times in PBS-T. Bound antibodies were eluted with 0.1 M glycine pH 2.2 and the eluates from each condition were neutralized using 1 M TrisHCl pH 8. The affinity-purified eluate from each condition was then evaluated for binding to the P28mer and T28mer by BLI. The BLI analysis was executed as stated in section 2.9.1.1. with modification of the running buffer. […]

The test system of data set [2] is anti-THSD7A positive sera. The data set can be described thus: Slot blotting with anti-THSD7A positive sera. The data set is classed as binding, human. The note with it: for binding of anti-THSD7A positive sera (slot blot): non-denaturing, 1 μg protein/peptide, sera 1:100, Fig. 2D. As for the experimental part: (§2) PLA2R, CysR domain, THSD7A (R&D Systems) and TSR1 protein samples (1 μg per lane) were resolved using 4–12% BisTris gradient gels with the MES buffer system, transferred to nitrocellulose membranes and blotted using patient sera (1:100 dilution) followed by incubation with Alexa Fluor® 680-AffiniPure Goat Anti-Human IgG, Fcγ Fragment Specific (min X Bov,Hrs,Ms Sr Prot) (1:10,000 dilution; Jackson Labs). Proteins were also analyzed using Moab 20-2-6, a monoclonal anti-PLA2R mouse antibody raised against a PLA2R fragment (see 2.4.1 for further details) at dilution 1:5000. Protein bands were visualized using an Odyssey Imaging System (LI-COR) at 700 nm and the intensity settings were kept constant for all blots allowing comparison. For slot blotting, 1 μg of proteins or peptides (P28mer aa38–65 and T28mer aa75-102 synthesized by ProImmune Ltd, Oxford, UK) were blotted directly onto nitrocellulose membrane and vacuum applied. For the reducing condition, samples were diluted in 10 mM Tris pH 8 then reduced and alkylated by sequential incubation with 50 mM DTT for 1 h at 37 °C and then with 125 mM iodoacetamide for 20 min in the dark. The reduced samples along with unreduced were blotted as described above.

Data set [3] deals with sera from ANCA vasculitis patients. The data set can be described thus: Slot blotting with ANCA vasculitis sera. In kind it is binding, human. The settings on record: slot blot, non-reducing; 1 μg peptide; pool of 5 sera, 1:100. The procedure: as §2
(§3) Fig.6 - Slot blot analysis of sera from IgAN and
(§4) Hu anti-IgAN Hu anti-ANCA Ponceau
(§5) CysR P28sc CysR P28sc CysR P28sc […]

Data set [4] deals with THSD7A autoantibodies in anti-THSD7A positive MN patient sera. The data set can be described thus: BLI off-rate of MN patient sera, anti-THSD7A positive sera on immobilized peptides. In kind it is binding, human. The settings on record: for Koff (dissociation rate): BLI, Octet Red, peptide immobilized on AR2G sensor, sera 1:100 in HEPES-T sera (10 mM HEPES, 150 mM NaCl, 0.05% Tween-20, 0.5% control sera), association 450s, dissociation 1200s, Hill fit, ten anti-THSD7A positive sera. As for the experimental part:
(§6) BLI experiments were conducted using an Octet Red (ForteBio, Nottingham, UK). P28mer and T28mer were diluted to 200 μg/ml in 10 mM sodium acetate, pH 4.5, and immobilized on an Octet AR2G sensor (ligand densities of 1.2 nm and 1.4 nm respectively). Patient sera were diluted 1:100 in HEPES-T sera (10 mM HEPES, 150 mM NaCl, 0.05% Tween-20 and 0.5% of a pool of human control sera). Three control normal sera were incorporated in the running buffer in order to provide the baseline binding (i.e. normalize the binding due to any spurious interaction) and allowing quantification of binding above this background. […] Sensors were incubated in MN sera for 450s (association phase) followed by HEPES-T sera for 1200s (dissociation phase). Regeneration was performed in 10 mM NaOH with three successive incubations. The peptide immobilized sensors responses to MN patient sera were calibrated against non-specific binding of each sensor to the HEPES-T sera buffer. The data were fitted to a Hill-1 plot with the inverse k value equivalent to the off rates (koff). Statistical analysis was performed using two way ANOVA multiple comparison or paired t-test as stated in the figure legends. p values of <0.05 were considered significant.
(In BLI a coated tip is dipped into the sample, and binding shifts an interference pattern.)

Data set [5] has as its system affinity purified anti-T28mer (THSD7A autoantibodies). The data set can be described thus: BLI of affinity purified anti-T28mer. In kind it is binding, human. The note with it: immobilized peptide, antibodies from anti-THSD7A sera eluted from T28mer beads, normalized to blank beads. The procedure: as §1
For data set [6], the target named is Moab 20-2-6. The data set can be described thus: SPR kinetics of Moab 20-2-6 on immobilized peptides. The data set is classed as binding, mouse. The settings on record: ProteOn XPR36, peptide immobilized on GLC chip, Moab 20-2-6 at 25-5 nM, Langmuir 1:1 with mass transfer, printed in Fig. 4B. From the text: Hybridoma production was undertaken by Proteogenix SAS (Schiltigheim, France). Mice were immunized with a fragment of human PLA2R protein (namely NC3, comprising the first five extracellular domains, CysR-FnII-CTLD1-CTLD2-CTLD3). Following fusion of spleen cells, 34 positive supernatants were found when screened by ELISA on the NC3 protein. Ten of the original 34 positive supernatants were taken forward for cloning. Following subcloning, 5 of 10 clones were selected for purification of monoclonal antibody which included antibody 20-2-6.
Kinetics were determined using a ProteOn XPR36 (Bio-Rad, Watford, UK). The P28mer and T28mer peptides were diluted to 200 μg/ml in 10 mM sodium acetate, pH 4.5, and immobilized on a ProteOn GLC sensor chip using standard amine coupling chemistry. […] Moab 20-2-6 was diluted to 25, 20, 15, 10, 5 nM in HEPES-T and injected for 120 s at 70 μl/min. The injection was stopped and dissociation phase measured for 800s. Buffer only and a blank immobilized lanes were used as controls and subtracted. The GLC sensor was regenerated in 10 mM NaOH with two successive injections. Kinetics were determined by fitting to a Langmuir 1:1 interaction model.

Data set [7] relates to unrelated mouse monoclonal raised against transferrin receptor. The data set can be described thus: Slot blotting of peptides with unrelated mouse monoclonal. In kind it is binding. The settings on record: slot blot, non-reducing; 1 μg peptide; antibody 1:5000. As for the experimental part: as §2
(§7) Fig.10 – Specificity of Moab 20-2-6 to P28mer and T28mer.
(§8) Slot blot analysis of unrelated mouse monoclonal
(§9) Moab anti-Transferrin secondary only control […]

Data set [8] has as its system PLA2R autoantibodies in anti-PLA2R positive MN patient sera. The data set can be described thus: BLI off-rate of MN patient sera, anti-PLA2R positive sera on immobilized peptides. The settings on record: Octet Red, peptide immobilized on AR2G sensor, sera 1:100 in HEPES-T sera (10 mM HEPES, 150 mM NaCl, 0.05% Tween-20, 0.5% control sera), association 450s, dissociation 1200s, Hill fit, ten anti-PLA2R positive sera. The data set is classed as binding, human. The procedure: as §6

The nature of data set [9]: Circular dichroism of the epitope peptides. In kind it is physicochemical. The note with it: 0.5 mg/ml; for turn content / unordered content / α-helix content / β-sheet content: CD far-UV 190–260 nm, milliQ water, 0.05-cm path, average of 10 accumulations, BeStSel. As for the experimental part: Lyophilized peptides were reconstituted in milliQ water to a concentration of 2.5 mg/ml and diluted to 0.5 mg/ml. CD Far-UV (190–260 nm) spectra were recorded using a Jasco-810 spectropolarimeter. Measurements were taken every 0.2 nm in a 0.05-cm path length cell. Spectra were corrected for buffer absorbance and represent an average of 10 accumulations. Spectra were recorded in millidegrees and converted to mean residue ellipticities using the following equation deltaE = mdeg x (0.1 x mrw)/path x conc_mg/ml x 3298 (where P28mer mrw = 109.5, T28mer mrw = 107.9). Estimation of secondary structure content was then performed using BeStSel software program.
(In general: Circular dichroism is widely used to follow secondary structure.)

In a further data set the test system is anti-PLA2R positive sera. The data set can be described thus: Slot blotting with anti-PLA2R positive sera. The data set is classed as binding, human. The note with it: non-denaturing; 1 μg protein/peptide; sera 1:100; Fig. 2D. The procedure:
as §2

For data set [10], the system named is sera from IgA Nephropathy (IgAN) patients. The data set can be described thus: Slot blotting with IgA Nephropathy sera. In kind it is binding, human. The note with it: slot blot, non-reducing; 1 μg peptide; pool of 5 sera, 1:100. As for the experimental part:
as §2, §3, §4, §5

Data set [11] has as its system affinity purified antibodies from PLA2R positive sera against PLA2R antigen. The data set can be described thus: BLI of affinity purified anti-PLA2R (against PLA2R antigen). The note with it: immobilized peptide, antibodies eluted from PLA2R antigen beads (positive control). In kind it is binding, human. As for the experimental part:
as §1

For data set [12], the system named is Moab 20-2-6. The data set can be described thus: Slot blotting of peptides with Moab 20-2-6. In kind it is binding, mouse. The note with it: non-reducing, 1 μg peptide, antibody 1:5000. The procedure:
as §2, §7, §8, §9

Take “P28mer: known major PLA2R CysR epitope peptide, aa38-65, synthesized by ProImmune”: the “binding of affinity purified anti-P28mer” value in data set [1] is given as “bind to both epitope peptides”. Moreover, the “binding of anti-THSD7A positive sera (slot blot)” value in data set [2] was “reacted with both P28mer and T28mer”. Besides, the “binding of ANCA vasculitis sera” value in data set [3] was “no binding”. Further, the “Koff (dissociation rate)” value in data set [4] stood at 0.0068 s⁻¹. Also, in [5], the “binding of affinity purified anti-T28mer” value is “bind to both epitope peptides”. At Moab 20-2-6 [6], this substance displayed a Kd of 0.0887 nM. Besides, the “reactivity of unrelated mouse monoclonal to peptide” value in [7] is on record as “no reactivity”. Further, the “Koff (dissociation rate)” value in [8] came out at 0.0028 s⁻¹. Besides, in data set [9], the turn content was 21.3%, the unordered content was 45.2%, the α-helix content amounted to 12.1% and the β-sheet content worked out at 21.3%. Also, the “binding of anti-PLA2R positive sera (slot blot)” value with anti-PLA2R positive sera is “reacted with both P28mer and T28mer”. Further, the “binding of IgA Nephropathy sera” value in data set [10] was “no binding”. In data set [11], the “binding of affinity purified PLA2R autoantibodies” value is given as “bind to both epitope peptides”. The “reactivity of Moab 20-2-6 to peptide (slot blot)” value in the data set on Moab 20-2-6 [12] was “reactivity”.
In the case of “T28mer: THSD7A epitope peptide, aa75-102, located in the TSR1 domain, synthesized by ProImmune (GPGGIQTRAVWCAHVEGWTTLHTNCKQA; UniProt Q9UPZ6 75-102, looked up, fragment)”, the “binding of affinity purified anti-P28mer” value in data set [1] is on record as “bind to both epitope peptides”. Further, the “number of anti-THSD7A sera recognizing the peptide” value in data set [2] (native blotting, ten anti-THSD7A sera tested) is “All ten anti-THSD7A sera tested recognized the T28mer peptide”. Also, the “binding of anti-THSD7A positive sera (slot blot)” value in data set [2] was “reacted with both P28mer and T28mer”. The “binding of ANCA vasculitis sera” value in data set [3] is listed as “no binding”. For the same substance, in data set [4], the “Koff (dissociation rate)” value stood at 0.0013 s⁻¹. Besides, in data set [4] (T28mer vs P28mer, Fig. 3B **** p value < 0.001 (two-way ANOVA)), the “preference of sera THSD7A autoantibodies between peptides (by dissociation rates)” value is “preferentially bind to the T28mer over P28mer”. For the same substance, the “binding of affinity purified anti-T28mer” value in [5] was “bind to both epitope peptides”. The substance also came in with a Kd at Moab 20-2-6 [6] of 0.101 nM. Further, the “reactivity of unrelated mouse monoclonal to peptide” value in data set [7] is given as “no reactivity”. For the same substance, the “Koff (dissociation rate)” value in data set [8] was 0.0009 s⁻¹. Further, in data set [9], the turn content came to 15%, the unordered content was determined as 46.7%, the α-helix content was 6.5% and the β-sheet content was 31.8%. Further, the “negative peak in CD spectrum” value in data set [9] (CD far-UV) is recorded as “around 205 nm”. Moreover, the “binding of anti-PLA2R positive sera (slot blot)” value in the data set with anti-PLA2R positive sera was “reacted with both P28mer and T28mer”. In addition, the “binding of IgA Nephropathy sera” value in data set [10] is given as “no binding”. The “binding of affinity purified PLA2R autoantibodies” value in data set [11] was “bind to both epitope peptides”. Moreover, the “reactivity of Moab 20-2-6 to peptide (slot blot)” value in the data set on Moab 20-2-6 [12] is listed as “reactivity”.
